The values that follow come from PubChem BioAssay (NCI).

Values joined by “and” are separate entries in the source; they are usually repeats but may differ in a detail not shown here. Equal entries are not always repeated.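 Results reflect a 48-hour exposure of cells in 96-well plates to compound at five concentrations. Abbreviation: GI50, concentration required for 50% inhibition of growth. TGI: concentration producing complete growth inhibition.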

Assay in all cases: NCI anticancer screen, dose series, 48 h
The subject of test [1] is DU-145 prostate.
Test [2] deals with K-562 leukemia.
Test [3] has as its system MDA-MB-231 breast.
The test system of test [4] is MDA-MB-435.
The test system of test [5] is SK-OV-3 ovarian.
The subject of test [6] is U251 CNS.
Test [7] concerns MALME-3M melanoma.
Test [8] deals with SN12C renal.
In test [9] the test system is UACC-62 melanoma.
Test [10] has as its system NCI/ADR-RES ovarian.

Consider `O=C(O)CC(NC(=O)CP(=O)(O)O)C(=O)O` (stereo not drawn), for which the TGI in [1] is > 10000 µM; in test [2], > 10000 µM; in test [3], > 10000 µM; in [4], > 10000 µM; in [5] it was > 7930 µM; in [6], > 10000 µM. In addition, the TGI in test [7] was > 8470 µM; in test [8], > 9020 µM; in test [9], 6640 µM; in test [10] it was > 10000 µM. Further, in test [4], the GI50 is 48.8 µM.
Consider `CC(=O)Oc1ccccc1C(=O)Nc1ncc([N+](=O)[O-])s1`, for which the GI50 in test [1] was 4.51 µM; in [2], 2.53 µM; in [3], 1.95 µM; in test [4], 2.13 µM; in test [5], 3.2 µM; in [6], 1.38 µM. Further, the GI50 in test [7] is 1.48 µM; in test [8], 1.87 µM; in test [9] it was 1.23 µM; in [10], 2.29 µM. Moreover, the TGI was > 100 µM in [1]; 18.8 µM and > 100 µM in [2]; 7.58 µM and 59.7 µM in [4]; > 80.3 µM in test [5]; 20.7 µM and > 100 µM in test [6]; 21.2 µM and 90.9 µM in test [8]. The TGI was 6.71 µM and > 47.3 µM in test [9]; > 85.2 µM in test [10].
Turning to `COC(=O)[C@@H](C)C[C@H](Cc1ccccc1)NC(=O)c1csc([C@@H](C[C@H](C(C)C)N(C)C(=O)[C@@H](NC(=O)[C@H]2CCCCN2C)C2CCCCC2)OC(C)=O)n1`, the GI50 in test [1] is 0.000291 µM and 0.0025 µM; in test [2], 0.000374 µM and 0.0025 µM; in [3] it was 0.00115 µM and 0.0025 µM; in [4], < 0.0001 µM; in [5], 0.000567 µM and 0.0025 µM; in test [6], 0.000533 µM and 0.0025 µM. The GI50 in [8] was 0.0041 µM and 0.0025 µM; in [9], 0.000354 µM and 0.0025 µM; in [10] it was 0.0215 µM and 0.0481 µM. Moreover, the TGI was 4.33 µM in [2]; 0.000368 µM in [4]; > 25 µM in [5]; > 25 µM in test [6]; 8.9 µM in test [8]; > 25 µM in test [9]. In addition, the TGI in [10] is > 25 µM.
As to `NC(=O)OCCn1cc(-c2nc(-c3c[nH]c4ncccc34)cs2)c2ccccc21`, the GI50 is 3.07 µM in [1]; 1.55 µM in [2]; 1.1 µM in [3]; 1.54 µM in test [5]; 1.91 µM in test [6]; 2.46 µM in test [8]. In addition, the GI50 is 1.57 µM in test [9] and 2.82 µM in [10]. The TGI in [1] worked out at 26.1 µM; in test [2], 14 µM; in [3], 4.38 µM; in test [5], 6.44 µM; in test [6], 5.08 µM; in test [8] it was 32.4 µM. The results for the TGI in test [9] and in test [10] were 5.41 µM and > 100 µM, respectively.
On to `COc1ccc(-c2coc3c4c(ccc3c2=O)OCO4)cc1OC`, for which the TGI in [1] is > 100 µM; in test [2] it was > 100 µM; in [3], > 100 µM; in [4], > 100 µM; in test [5] it was 83.6 µM; in test [6] it was > 100 µM. For the same molecule, the TGI in [8], in test [9] and in test [10] was > 100 µM each time.
Take `O=C(Nc1ccc(F)cc1)c1cc(S(=O)(=O)Nc2nc3ccccc3o2)c(SCc2ccccc2)cc1Cl`: the GI50 in [1] is 19.2 µM; in test [2] it was 24.7 µM; in test [3], 14.5 µM; in [4] it was 16.3 µM; in test [5], 22.1 µM; in test [6], 17.3 µM. In addition, the GI50 in test [8] is 16.4 µM; in [9], 14.4 µM; in test [10], 22.8 µM. In addition, the TGI in test [1] was 35.4 µM; in test [2], 99.6 µM; in test [3], 29.5 µM; in test [4], 30.7 µM; in [5], 53.1 µM; in [6], 31.7 µM. The results for the TGI in test [8], in test [9] and in test [10] were 31.6 µM, 27.6 µM and 54.4 µM, respectively.
With `COc1ccc(CCNC(=O)c2ccc(NC3=C(Cl)C(=O)N(Cc4ccccc4)C3=O)cc2)cc1OC`, the GI50 in test [1] is 16.2 µM; in test [2], 2.21 µM; in [3], 4.52 µM; in test [4], 15.8 µM; in test [5] it was 35.8 µM; in test [6], 32.8 µM. Further, the GI50 in [8] is 23.9 µM; in test [9], 11.8 µM; in test [10] it was 22.3 µM. For the same molecule, the TGI in test [1] was > 100 µM; in [2] it was 5.21 µM; in [3] it was > 100 µM; in test [4] it was 43.8 µM; in [5], > 100 µM; in [6], > 100 µM. In addition, the TGI was > 100 µM in test [8], 74.8 µM in [9] and 64.4 µM in test [10].
For the molecule `[N-]=[N+]=Nc1cc(=O)n2c3c(cccc13)CCC2`, the TGI in test [1], in [2], in test [3], in test [4], in test [6] and in [7] was > 100 µM each time. The TGI in test [8], in test [9] and in [10] was > 100 µM in each case.
Consider `COc1cc2c(c(OC)c1OC)-c1ncc3cc4c(cc3c1C2)OCO4`, for which the GI50 in [1] was 23.2 µM; in test [2], 2.27 µM; in test [3] it was 13.8 µM; in test [4], 13.2 µM; in test [5], 21.9 µM; in [6], 21.6 µM. The figures for the GI50 in test [8], in [9] and in [10] were 13.4 µM, 19.3 µM and 32.1 µM, respectively. Moreover, the TGI was > 100 µM in test [1]; > 100 µM in [2]; 88.8 µM in [3]; 32.6 µM in test [4]; 46.5 µM in test [5]; 54.2 µM in [6]. Besides, the TGI was 40.8 µM in test [8], > 100 µM in test [9] and > 100 µM in [10].
